# From patent US11555031B2, “Compounds and methods for regulating insulin secretion” (The Broad Institute, Inc., priority 2017, dated 2023)
# Tested on: not listed separately
# Assay: Solubility (medicinal chemistry measurements)
# Type: physicochemical
# Conditions: relative to Compound 8
row,SMILES,solubility
1,"Cc1cccc(NC(=O)c2ccc(OCc3c(C)cncc3C)cc2)c1C [Compound 49, N-(2,3-Dimethyl-phenyl)-4-(3,5-dimethyl-pyridin-4-ylmethoxy)-benzamide]",lower solubility than Compound 8

# Tested on: not listed separately
# Assay: Plasma stability, mouse
# Type: in vitro ADME
# Conditions: not given
# Protocol: (§1) Measurements were performed on human, mouse (CD-1) and rat (SD) microsomes to determine the t1/2, the plasma protein binding (“PPB”) and the plasma stability (“PS”).
row,SMILES,PS
1,"CC1CC(OC(=O)C(O)c2ccccc2)CC(C)(C)N1C (stereo not drawn) [eucatropine, reference compound]",24.6 % remaining

# Tested on: INS-1E cells
# Assay: Luciferase Insulin Secretion Assay (proinsulin-Gaussia luciferase reporter)
# Type: cell-based, rat
# Set-up: key to Activity: Active: a compound is identified as active if the compound has a Z-score greater than 3 in the presence of 16.7 mM glucose; Partial activity indicates that the compound does promote insulin secretion (at lower Z-scores); Lost Glucose Dependence: In some cases, insulin secretion was promoted at both measured insulin concentrations
# Conditions: INS-1E cells; 2.8 mM vs 16.7 mM glucose
# Description: A high-throughput luminescent insulin secretion assay was developed and performed to identify compounds that amplified insulin secretion only in the presence of a permissive glucose environment (FIG. 3). The assay used in compound screening is described in International Patent Publication No. WO2013070796A3, PCT/US2012/063982, and in Burns et al., High-Throughput Luminescent Reporter of Insulin Secretion for Discovering Regulators of Pancreatic Beta-Cell Function. Cell Metab. 2015 Jan. 6; 21(1):126-37.
# The assay is a luminescent insulin secretion assay created by inserting Gaussia luciferase within the C-peptide portion of the insulin prohormone. Gaussia luciferase was chosen because of its small size and bright luciferase signal. To ensure full activity of the luciferase, a version was used that was codon-optimized for expression in mammalian cells. The enzyme was flanked with additional cleavage sites for prohormone convertase 2 (PC2), such that no extra amino acids should be present on the ends of the enzyme after processing within the vesicles (FIG. 4). Rat (INS-1E; Merglen et al., 2004) beta-cell lines stably expressing the reporter construct were generated. Assays using this cell type are referred to herein as Luciferase Insulin Secretion Assay.
# A search for glucose-dependent insulin secretagogues was conducting by screening 384,216 compounds at a single concentration (10 μM) in duplicate using the Luciferase Insulin Secretion Assay, to identify those that increase insulin secretion only in the presence of high glucose (11.1 mM) (FIG. 6). These assays were performed in 1536 well format. A Z′ factor of 0.35 was obtained with respect the positive control (300 μM IBMX). The cutoff value selected was 45% activation, which was 3-4 standard deviations above background (solid uppermost line; FIG. 6).
# For standard secretion assays, INS-1E cells were plated in 96-well format, preincubated for 1 hr in Krebs Ringer Buffer (KRB) with 2.8 mM glucose, and then stimulated for 1 hr in fresh KRB containing varying amounts of glucose and compounds. Insulin or C-peptide concentration was determined using an ELISA (Mercodia), following the manufacturer's protocol. Luciferase activity was determined from the same samples by adding the coelenterazine substrate to the supernatant to a final concentration of 10 μM and reading on a standard plate reader (BioTek).
# INS-1E cells were expanded to 80% confluence in their growth medium, washed once in PBS, and preincubated for 1 hr at 37° C. in KRB with 2.8 mM glucose. Cells were then dissociated, spun at 300×g for 2 min, resuspended in fresh KRB without glucose, and filtered through 40 μm mesh (Becton Dickinson). Next, the cells were counted and diluted in KRB to 1×10^6 cells per ml, and glucose was added as required for each experiment. Cells were then seeded in 384-well format, 3×10^4 cells in 30 μl per well, using a Multidrop Combi device (Thermo Scientific). Compounds were pinned into each well using a Vario robot (CyBio) to a final concentration of 30 μM, and the plates were then incubated for 2 hr at 37° C. For assays involving a transfer step, the plates were then centrifuged at 300×g for 2 min, and 20 μl of supernatant was transferred to a new 384-well plate. Coelenterazine substrate was then added to a final concentration of 10 μM, and luciferase activity was determined using a standard plate reader (BioTek).
row,SMILES,"glucose-dependent (glucose-stimulated) insulin secretion, luciferase reporter"
1,"COc1ccc(CCc2nc3cc(-c4c(C)noc4C)ccc3n2C[C@H](C)N2CCOCC2)cc1Cl [SGC-CBP30, reference compound]",None of the compounds assayed increased glucose-dependent insulin secretion

# Same assay, conditions: INS-1E cells; high compound concentrations
row,SMILES,effect on glucose-stimulated insulin secretion at high concentrations
1,"COc1ccc(CCc2nc3cc(-c4c(C)noc4C)ccc3n2C[C@H](C)N2CCOCC2)cc1Cl [SGC-CBP30, reference compound]",inhibitory effects

# Same assay, conditions: Rattus norvegicus, INS-1E; glucose concentration of 16.7 mM
row,SMILES,EC50
1,"Cc1cccc(NC(=O)c2ccc(OCc3c(C)cncc3C)cc2)c1C [Compound 49, N-(2,3-Dimethyl-phenyl)-4-(3,5-dimethyl-pyridin-4-ylmethoxy)-benzamide]",~82 nM

# Same assay, conditions: glucose dependence of insulin secretion; Z-score in the presence of 16.7 mM glucose
row,SMILES,Activity
1,"Cc1cccc(NC(=O)c2ccc(OCc3c(C)cncc3C)cc2)c1C [Compound 49, N-(2,3-Dimethyl-phenyl)-4-(3,5-dimethyl-pyridin-4-ylmethoxy)-benzamide]",Inactive
2,"Cc1cccc(NC(=O)c2ccc(OCc3c(C)noc3C)c(CCCN=[N+]=[N-])c2)c1C [Compound 89, 3-(3-Azido-propyl)-4-(3,5-dimethyl-isoxazol-4-ylmethoxy)-N-(2,3-dimethyl-phenyl)-benzamide]",Inactive
3,"COc1ncccc1COc1ccc(C(=O)Nc2cccc(C)c2C)cc1 [Compound 65, N-(2,3-Dimethyl-phenyl)-4-(2-methoxy-pyridin-3-ylmethoxy)-benzamide]",Inactive
4,Cc1cccc(NC(c2ccc(NCc3c(C)noc3C)cc2)C(F)(F)F)c1C (stereo not drawn) [Compound 33],Inactive
5,"Cc1noc(C)c1COc1ccc(C(=O)Nc2cccc3ccccc23)cc1 [Compound 74, 4-(3,5-Dimethyl-isoxazol-4-ylmethoxy)-N-naphthalen-1-yl-benzamide]",Inactive
6,"Cc1noc(C)c1COc1ccc(C(=O)Nc2cccc3c2CCCC3)cc1 [Compound 73, 4-(3,5-Dimethyl-isoxazol-4-ylmethoxy)-N-(5,6,7,8-tetrahydro-naphthalen-1-yl)benzamide]",Inactive
7,Cc1cccc(-c2cnc(-c3ccc(OCc4c(C)noc4C)cc3)[nH]2)c1C [Compound 94],Inactive
8,Cc1cccc(NC(=O)c2ccc(OCc3c(C)cnn3C)cc2)c1C [Compound 48],Inactive
9,"CC(=O)NCCCc1cc(C(=O)Nc2cccc(C)c2C)ccc1OCc1c(C)noc1C [Compound 88, 3-(3-Acetylamino-propyl)-4-(3,5-dimethyl-isoxazol-4-ylmethoxy)-N-(2,3-dimethyl-phenyl)-benzamide]",Active
10,"Cc1cccc(NC(=O)c2ccc(OCc3cccnc3)cc2)c1C [Compound 61, N-(2,3-Dimethyl-phenyl)-4-(pyridin-3-ylmethoxy)-benzamide]",Inactive
11,Cc1cccc(NC(=O)c2ccc(OCc3c(C)noc3C)cc2)n1 [Compound 82],Inactive
12,Cc1cccc(NC(=O)c2ccc(OCc3c(C)noc3C)cc2)c1CO [Compound 70],Active
13,CC(=O)c1ccccc1NC(=O)c1ccc(OCc2c(C)noc2C)cc1 [Compound 85],Inactive
14,"CC(=O)NCc1cccc(NC(=O)c2ccc(OCc3c(C)noc3C)cc2)c1 [Compound 91, N-[3-(Acetylamino-methyl)-phenyl]-4-(3,5-dimethyl-isoxazol-4-ylmethoxy)-benzamide]",Inactive
15,"Cc1cccc(NC(=O)c2ccc(OCc3ccncc3)cc2)c1C [Compound 60, N-(2,3-Dimethyl-phenyl)-4-(pyridin-4-ylmethoxy)-benzamide]",Inactive
16,"COCc1cccc(NC(=O)c2ccc(OCc3c(C)noc3C)cc2)c1 [Compound 84, 4-(3,5-Dimethyl-isoxazol-4-ylmethoxy)-N-(3-methoxymethyl-phenyl)-benzamide]",Inactive
17,"Cc1cccc(NC(=O)c2ccc(CNc3c(C)noc3C)cc2)c1C [Compound 57, 4-[(3,5-Dimethyl-isoxazol-4-ylamino)-methyl]-N-(2,3-dimethyl-phenyl)-benzamide]",Inactive
18,Cc1cccc(NC(=O)c2ccc(OCc3c(C)noc3C)cn2)c1C [Compound 45],Inactive
19,"Cc1noc(C)c1COc1ccc(C(=O)Nc2cccc(Cl)c2Cl)cc1 [Compound 68, N-(2,3-Dichloro-phenyl)-4-(3,5-dimethyl-isoxazol-4-ylmethoxy)-benzamide]",Active
20,"Cc1noc(C)c1COc1ccc(C(=O)Nc2cccc(C#N)c2C)cc1 [Compound 83, N-(3-Cyano-2-methyl-phenyl)-4-(3,5-dimethyl-isoxazol-4-ylmethoxy)-benzamide]",Inactive
21,"Cc1cccc(NC(=O)c2ccc(OCc3cnoc3)cc2)c1C [Compound 47, N-(2,3-Dimethyl-phenyl)-4-(isoxazol-4-ylmethoxy)-benzamide]",Inactive
22,"Cc1cccc(NC(=O)c2ccc(OCc3cccnc3C)cc2)c1C [Compound 63, N-(2,3-Dimethyl-phenyl)-4-(2-methyl-pyridin-3-ylmethoxy)-benzamide]",Inactive

# Tested on: alpha-TC-1-6
# Assay: Luminescent glucagon secretion assay in alpha-cell line
# Type: cell-based
# Conditions: compared with DMSO negative control
# Protocol: FIG. 10 depicts the quantification of α-cell secretory activity in cells treated with DMSO, KCl, or Compound 8, using a luminescent assay for glucagon secretion.
# To investigate the cell-type specificity of the compound, and to exclude the possibility that Compound 8 acts as a generic secretagogue, the compound was tested on secretion from a rodent alpha-cell line, “alpha-TC-1-6,” using a luciferase reporter for glucagon secretion that mirrors the insulin secretion assay (FIG. 10).
row,SMILES,alpha-cell secretory activity (luciferase reporter for glucagon secretion)
1,"[Cl-].[K+] [KCl, potassium chloride, reference compound]",causes secretion

# Tested on: not listed separately
# Assay: Plasma stability, rat
# Type: in vitro ADME
# Conditions: not given
# Protocol: as §1
row,SMILES,PS
1,"CC1CC(OC(=O)C(O)c2ccccc2)CC(C)(C)N1C (stereo not drawn) [eucatropine, reference compound]",32.4 % remaining

# Tested on: not listed separately
# Assay: Plasma stability, human
# Type: in vitro ADME
# Conditions: not given
# Protocol: as §1
row,SMILES,PS
1,"CC1CC(OC(=O)C(O)c2ccccc2)CC(C)(C)N1C (stereo not drawn) [eucatropine, reference compound]",1.1 % remaining
